Experimental data: patent US20110071197A1, “BIS-ARYL COMPOUNDS FOR USE AS MEDICAMENTS” (priority 2008, published 2011)

Each compound was assayed against T1, Recombinant human LTC4 synthase (Homo sapiens, UniProt Q16873) (assay: LTC4 synthase in vitro assay (HTRF detection of LTC4)). Conditions: compound concentration 3 μM; HTRF method.
T1 construct: made in house; host or cells: Pichia pastoris
T1 sequence (Q16873 1-150): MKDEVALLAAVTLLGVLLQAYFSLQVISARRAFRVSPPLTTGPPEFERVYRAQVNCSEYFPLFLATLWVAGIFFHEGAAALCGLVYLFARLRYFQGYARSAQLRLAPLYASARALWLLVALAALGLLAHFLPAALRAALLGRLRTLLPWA
Format: biochemical
Procedure: Alternatively HTRF detection of LTC4 can be used:
In the assay, LTC4 synthase catalyses the reaction where the substrate LTA4 is converted to LTC4. Recombinant human LTC4 synthase is expressed in Piccia pastoralis and the purified enzyme is dissolved in 25 mM Tris-buffer pH 7.8 supplemented with 0.1 mM glutathione (GSH) and stored at −80° C. The assay is performed in phosphate buffered saline (PBS) pH 7.4 and 5 mM GSH in 384-well plates.
The following is added chronologically to each well: • 1. 48 μl LTC4 synthase in PBS with 5 mM GSH. The total protein concentration in this solution is 0.5 μg/ml. • 2. […] Incubation of the plate at room temperature for 10 minutes. • 4. 1 μl LTA4 (final conc. 2.5 μM). • 5. Incubation of the plate at room temperature for 5 minutes. • 6. 10 μl of the incubation mixture is analysed using homogeneous time resolved fluorescent (HTRF) detection.

inhibition at 3 µM | Compound
83% | Cc1nc(C(F)(F)F)ccc1C(=O)Nc1ccc(Oc2ccc(NC(=O)c3ccc(C(F)(F)F)cc3)c(C(=O)O)c2)cc1 [8:5, 5-[4-((2-methyl-6-(trifluoro-methyl)-pyridine-3-carbonyl)-amino)-phenoxy]-2-(4-(trifluoro-methyl)-benzoylamino)-benzoic acid]
70% | CCOc1ccc(C(=O)Nc2ccc(Oc3ccc(NC(=O)c4ccccc4)cc3)cc2C(=O)O)cc1 [8:11, 5-(4-benzoylaminophenoxy)-2-(4-ethoxybenzoylamino)-benzoic acid]

Compound | inhibition at 3 µM
CCCCOc1ccc(S(=O)(=O)NC(=O)Cc2cccc(Oc3ccc(Nc4ccc(Cl)cc4)c(C(=O)O)c3)c2)cc1 [26:1, 5-{3-[2-(4-Butoxybenzenesulfonyl-amino)-2-oxoethyl]phenoxy}-2-(4-chlorophenylamino)benzoic acid] | 94%

Same assay, conditions: total concentration of title compound in the assay 10 μM; HTRF method

inhibition at 10 µM | Compound | % inh.
99% | CCCCc1ccc(C(=O)Nc2ccc(Oc3ccc(NC(=O)c4ccccc4)c(C(=O)O)c3)cc2)cc1 [8:12, 2-benzoylamino-5-[4-(4-butyl-benzoylamino)phenoxy]-benzoic acid] | 
97% | CCCCN(c1ccc(F)c(F)c1)c1ccc(Oc2ccc(Nc3ccc(F)c(F)c3)c(C(=O)O)c2)cc1C(=O)O [Example 24:3, 2-[butyl-(3,4-difluorophenyl)amino]-5-[3-carboxy-4-(3,4-difluorophenyl-amino)phenoxy]benzoic acid] | 
94% | CCCCc1ccc(C(=O)Nc2ccc(Oc3ccc(NC(=O)c4ccc(Cl)cc4Cl)c(CC(=O)O)c3)cc2)cc1 [17:5, [5-[4-(4-butyl-benzoylamino)-phenoxy]-2-(2,4-dichloro-benzoylamino)-phenyl]-acetic acid] | 
96% | CN(c1cc(Oc2ccc(NC(=O)c3cccc(Cl)c3)cc2)cc(C(=O)O)c1)c1ccc(F)c(F)c1 [18:6, 3-[4-(3-Chloro-benzoylamino)-phenoxy]-5-[(3,4-difluoro-phenyl)-methyl-amino]-benzoic acid] | 
98% | CCCCc1ccc(C(=O)Nc2ccc(Sc3ccc(NC(=O)c4ccc(CCCC)cc4)c(C(=O)O)c3)cc2C(=O)O)cc1 [13:1, 2-(4-butylbenzamido)-5-((4-(4-butylbenzamido)-3-carboxyphenyl)-sulfanyl)benzoic acid] | 
98% | Cc1nc(C(F)(F)F)ccc1C(=O)Nc1ccc(Oc2ccc(NS(=O)(=O)c3cc(Cl)cc(Cl)c3O)c(C(=O)O)c2)cc1 [21:2, 2-(3,5-Dichloro-2-hydroxy-benzene-sulfonylamino)-5-{4-[(2-methyl-6-trifluoromethyl-pyridine-3-carbonyl)-amino]-phenoxy}-benzoic acid] | 
95% | CCCCc1ccc(C(=O)Nc2cccc(Oc3ccc(NC(=O)c4ccccc4OC)c(C(=O)O)c3)c2)cc1 [10:3, 5-[(3-(4-(1-butyl)benzoylamino)-phenoxy)]-2-(2-methoxybenzoyl-amino)benzoic acid] | 
99% | O=C(Nc1ccc(Sc2ccc(NC(=O)c3ccc(Cl)cc3Cl)c(C(=O)O)c2)cc1)c1ccc(C(F)(F)F)cc1 [Example 35:1, 2-(2,4-Dichlorobenzoylamino)-5-[4-(4-trifluoromethylbenzoylamino)phenyl-sulfanyl]benzoic acid] | 
97% | O=C(O)c1cc(Nc2ccc(F)c(F)c2)cc(Oc2ccc(Nc3ccc(Cl)cc3)cc2)c1 [18:2, 3-[4-(4-Chloro-phenylamino)-phenoxy]-5-(3,4-difluoro-phenylamino)-benzoic acid] | 
88% | CCCCc1ccc(C(=O)Nc2cccc(Oc3ccc(NC(=O)c4ccc(OC(F)(F)F)cc4)c(C(=O)O)c3)c2)cc1 [10:2, 5-[(3-(4(1-butyl)benzoylamino)-phenoxy)]-2-(4-trifluoromethoxy-benzoylamino)benzoic acid] | 
97% | O=C(Nc1ccc(Cl)cc1)Nc1ccc(Sc2ccc(NC(=O)Nc3ccc(Cl)cc3)c(C(=O)O)c2)cc1 [14:5, 2-[3-(4-chlorophenyl)-ureido]-5-{4-[3-(4-chlorophenyl)-ureido]phenylsulfanyl}-benzoic acid] | 
99% | CC(C)(C)c1ccc(C(=O)Nc2ccc(Oc3ccc(NC(=O)c4ccccn4)c(C(=O)O)c3)cc2)cc1 [8:18, 5-[4-(4-tert-Butylbenzoyl-amino)phenoxy]-2-[(pyridine-2-carbonyl)-amino]benzoic acid] | 
100% | O=C(O)c1cc(Oc2ccc(S(=O)(=O)Nc3ccc(F)c(F)c3)cc2)ccc1NC(=O)c1cccc(Cl)c1Cl [25:5, 2-(2,3-Dichlorobenzoylamino)-5-[4-(3,4-difluorophenylsulfamoyl)-phenoxy]benzoic acid] | 
100% | COc1ccc(S(=O)(=O)N(C)c2ccc(Oc3ccc(NC(=O)c4cccc(Cl)c4)c(C(=O)O)c3)cc2)cc1 [11:14, 2-(3-Chloro-benzoylamino)-5-{4-[(4-methoxy-benzenesulfonyl)-methyl-amino]-phenoxy}-benzoic acid] | 

Further lines, the compound ahead of its results:

Compound | inhibition at 10 µM | % inh.
CCCCOc1ccc(S(=O)(=O)Nc2ccc(Oc3ccc(NC(=O)c4ccccc4)cc3)cc2/C=C/C(=O)O)cc1 [Example 22:1, (E)-3-[5-(4-Benzoylaminophenoxy)-2-(4-butoxybenzenesulfonylamino)-phenyl]acrylic acid] | 96% | 
O=C(Nc1cccc(Oc2ccc(NC(=O)c3ccc(C(F)(F)F)cc3F)c(C(=O)O)c2)c1)c1cccc(C(F)(F)F)c1 [10:5, 2-(2-fluoro-4-trifluoromethylbenzoyl-amino)-5-[3-(3-trifluoro-methylbenzoylamino)phenoxy]benzoic acid] |  | 98%
CCCCc1ccc(C(=O)Nc2cccc(Oc3ccc(NC(=O)c4ccc(C(F)(F)F)cc4F)c(C(=O)O)c3)c2)cc1 [10:4, 5-[3-((4-(1-butyl)benzoyl)amino)-phenoxy]-2-(2-fluoro-4-trifluoro-methylbenzoylamino)benzoic acid] |  | 95%
N#Cc1ccc(C(=O)Nc2ccc(Oc3ccc(NC(=O)c4cccc(Cl)c4)c(C(=O)O)c3)cc2C(=O)O)cc1 [2:9, 5-[3-carboxy-4-(4-cyanobenzamido)-phenyloxy]-2-(3-chlorobenzamido)benzoic acid] | 99% | 
CCCCOc1ccc(S(=O)(=O)Nc2ccc(Oc3ccc(Nc4ccc(F)c(F)c4)cc3C(=O)O)cc2C(=O)O)cc1 [Example 1:9, 2-(4-butoxybenzenesulfonyl-amino)-5-[4-(2-carboxy)(3,4-di-fluorophenylamino)phenoxy]-benzoic acid] |  | 100%
O=C(O)c1cc(Oc2ccc(Nc3ccc([N+](=O)[O-])cc3)c(C(=O)O)c2)ccc1Nc1ccc(F)cc1 [1:6, 5-[3-carboxy-4-(4-nitrophenyl-amino)phenyloxy]-2-(4-fluoro-phenylamino)benzene-carboxylic acid] | 100% | 
O=C(O)c1cc(Oc2ccc(Nc3ccc(F)c(F)c3)c(C(=O)O)c2)ccc1Nc1ccc(F)c(F)c1 [1:3, 3,3′-oxybis[6-(3,4-difluorophenyl-amino)benzoic acid]] | 100% | 
O=C(Nc1ccc(Oc2ccc(NC(=O)c3cccc(Cl)c3)c(C(=O)O)c2)cc1C(=O)O)c1ccc([N+](=O)[O-])cc1 [2:3, 5-[3-carboxy-4-(4-nitrobenzamido)-phenyloxy]-2-(3-chlorobenzamido)benzoic acid] | 100% | 
CN(C)c1ccc(C(=O)Nc2ccc(Oc3ccc(NC(=O)c4ccc(C(F)(F)F)cc4)c(C(=O)O)c3)cc2)cc1.Cl [8:6, 5-[4-(4-dimethylaminobenzoyl-amino)phenoxy]-2-(4-trifluoro-methylbenzoylamino)benzoic acid hydrochloride] |  | 97%
2-[(2-Chloro-pyridine-3-carbonyl)-amino]-5-{4-[(4-methoxy-benzene-sulfonyl)methylamino]-phenoxy}benzoic acid [11:20] |  | 76%
CCCCOc1ccc(S(=O)(=O)Nc2ccc(Oc3cccc(S(=O)(=O)Nc4ccc(F)c(F)c4)c3)cc2C(=O)O)cc1 [19:2, 2-(4-Butoxy-benzenesulfonylamino)-5-[3-(3,4-difluoro-phenylsufamoyl)-phenoxy]-benzoic acid] |  | 100%
CCCCc1ccc(C(=O)Nc2ccc(Oc3ccc(NC(=O)c4ccc(C(F)(F)F)cc4)c(C(=O)O)c3)cc2)cc1 [8:4, 5-[4-(4-(butyl)benzoylamino)-phenoxy]-2-(4-trifluoromethyl-benzoylamino)benzoic acid] | 89% | 
CC(C)Oc1ccc(C(=O)Nc2ccc(Oc3ccc(NC(=O)c4ccc(Cl)cc4Cl)c(CC(=O)O)c3)cc2C(=O)O)cc1 [6:6, 5-[3-carboxymethyl-4-(2,4-dichloro-benzoyl-amino)phenoxy]-2-(4-isopropoxybenzoyl-amino)benzoic acid] | 98% | 
CCCCOc1ccc(S(=O)(=O)Nc2ccc(Oc3ccc(NC(=O)c4ccccc4)cc3)cc2CC(=O)O)cc1 [17:7, [5-(4-benzoylamino-phenoxy)-2-(4-butoxy-benzenesulfonyl-amino)-phenyl]-acetic acid] | 95% | 
O=C(Nc1ccc(Oc2ccc(NC(=O)c3cccc(Cl)c3)c(C(=O)O)c2)cc1C(=O)O)c1ccccc1 [5:3, 5-[3-carboxy-4-(3-chlorobenzamido)-phenyloxy]-2-benzamidobenzoic acid] | 100% | 
